Reference: patent publication US7214669B2, “Tetracycline derivatives and methods of use thereof” (Tetragenex Pharmaceuticals, Inc., priority 2001, dated 2007)
“And” between values parts separate entries of the source, which are not always exact repeats. Equal entries are not always repeated. Structures can show the parent of a compound that is named as a salt.

How the values were obtained:
Human recombinant MMP1 = target: T1, Human recombinant MMP1 (Homo sapiens, UniProt P03956); experiment: MMP1 (Collagenase-1) inhibition, 14C collagen release; type: biochemical; conditions: 35° C., 5 hours; read-out: MMP-1 inhibitory activity, IC50
T1 sequence (P03956 100-469): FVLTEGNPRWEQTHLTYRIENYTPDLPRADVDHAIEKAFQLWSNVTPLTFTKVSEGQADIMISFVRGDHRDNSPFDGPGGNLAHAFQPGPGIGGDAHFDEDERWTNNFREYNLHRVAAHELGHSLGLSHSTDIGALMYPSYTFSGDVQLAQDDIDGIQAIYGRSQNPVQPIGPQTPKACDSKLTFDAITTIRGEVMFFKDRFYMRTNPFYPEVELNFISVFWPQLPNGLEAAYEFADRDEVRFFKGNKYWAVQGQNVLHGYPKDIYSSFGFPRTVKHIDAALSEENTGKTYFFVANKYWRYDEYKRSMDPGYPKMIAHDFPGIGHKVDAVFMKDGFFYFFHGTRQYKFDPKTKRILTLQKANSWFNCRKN

MMP2 (Gelatinase A) = target: T2, MMP2 (Gelatinase A) (Homo sapiens, UniProt P08253); experiment: MMP2 (Gelatinase A) inhibition, 14C gelatin release; type: biochemical; conditions: 37° C., 16 hours; read-out: MMP-2 inhibitory activity, IC50
T2 sequence (P08253 110-660): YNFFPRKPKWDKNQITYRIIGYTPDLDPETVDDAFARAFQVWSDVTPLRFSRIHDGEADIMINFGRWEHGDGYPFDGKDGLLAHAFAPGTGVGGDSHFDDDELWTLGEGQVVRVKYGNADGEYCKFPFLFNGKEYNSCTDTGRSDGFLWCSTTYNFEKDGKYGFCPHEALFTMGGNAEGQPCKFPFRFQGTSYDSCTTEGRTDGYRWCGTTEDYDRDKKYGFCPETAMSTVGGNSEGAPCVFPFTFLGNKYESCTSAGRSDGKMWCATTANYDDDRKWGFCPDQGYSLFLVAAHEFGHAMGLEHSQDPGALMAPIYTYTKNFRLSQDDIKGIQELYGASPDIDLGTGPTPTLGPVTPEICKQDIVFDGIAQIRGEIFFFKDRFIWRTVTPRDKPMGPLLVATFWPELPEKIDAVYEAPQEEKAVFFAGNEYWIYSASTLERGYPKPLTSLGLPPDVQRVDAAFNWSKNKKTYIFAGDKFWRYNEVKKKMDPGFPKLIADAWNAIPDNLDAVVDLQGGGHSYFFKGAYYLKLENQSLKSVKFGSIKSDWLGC

Human recombinant MMP3 = Human recombinant MMP3 (Homo sapiens, UniProt P08254); experiment: MMP3 (Stromelysin 1) inhibition, 14C casein release; type: biochemical; conditions: 37° C., 16 hours; read-out: MMP-3 inhibitory activity, IC50
Chain of Human recombinant MMP3 (P08254 100-477): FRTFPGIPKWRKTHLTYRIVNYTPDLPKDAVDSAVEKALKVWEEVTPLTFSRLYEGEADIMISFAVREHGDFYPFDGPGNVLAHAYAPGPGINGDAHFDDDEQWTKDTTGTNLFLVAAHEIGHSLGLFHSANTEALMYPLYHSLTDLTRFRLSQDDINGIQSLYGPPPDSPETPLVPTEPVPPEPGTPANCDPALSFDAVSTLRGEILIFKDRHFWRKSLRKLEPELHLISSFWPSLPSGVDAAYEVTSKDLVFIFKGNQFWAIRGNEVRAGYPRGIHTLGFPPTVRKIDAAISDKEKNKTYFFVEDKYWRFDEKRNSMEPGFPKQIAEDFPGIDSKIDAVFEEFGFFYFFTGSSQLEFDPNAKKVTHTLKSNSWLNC

Human recombinant MMP7 = target: T3, Human recombinant MMP7 (Homo sapiens, UniProt P09237); experiment: MMP7 (Matrilysin) inhibition, 14C casein release; type: biochemical; conditions: 37° C., 16 hours; read-out: MMP-7 inhibitory activity, IC50
T3 sequence (P09237 95-267): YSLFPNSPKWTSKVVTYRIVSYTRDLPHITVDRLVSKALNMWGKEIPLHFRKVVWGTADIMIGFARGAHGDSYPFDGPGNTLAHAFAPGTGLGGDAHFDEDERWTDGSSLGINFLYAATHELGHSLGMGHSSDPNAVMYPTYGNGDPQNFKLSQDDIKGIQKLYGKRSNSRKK

Human recombinant MMP9 = Human recombinant MMP9 (Homo sapiens, UniProt P14780); experiment: MMP9 (Gelatinase B) inhibition, 14C gelatin release; type: biochemical; conditions: 37° C., 16 hours; read-out: MMP-9 inhibitory activity, IC50
Chain of Human recombinant MMP9 (P14780 94-707): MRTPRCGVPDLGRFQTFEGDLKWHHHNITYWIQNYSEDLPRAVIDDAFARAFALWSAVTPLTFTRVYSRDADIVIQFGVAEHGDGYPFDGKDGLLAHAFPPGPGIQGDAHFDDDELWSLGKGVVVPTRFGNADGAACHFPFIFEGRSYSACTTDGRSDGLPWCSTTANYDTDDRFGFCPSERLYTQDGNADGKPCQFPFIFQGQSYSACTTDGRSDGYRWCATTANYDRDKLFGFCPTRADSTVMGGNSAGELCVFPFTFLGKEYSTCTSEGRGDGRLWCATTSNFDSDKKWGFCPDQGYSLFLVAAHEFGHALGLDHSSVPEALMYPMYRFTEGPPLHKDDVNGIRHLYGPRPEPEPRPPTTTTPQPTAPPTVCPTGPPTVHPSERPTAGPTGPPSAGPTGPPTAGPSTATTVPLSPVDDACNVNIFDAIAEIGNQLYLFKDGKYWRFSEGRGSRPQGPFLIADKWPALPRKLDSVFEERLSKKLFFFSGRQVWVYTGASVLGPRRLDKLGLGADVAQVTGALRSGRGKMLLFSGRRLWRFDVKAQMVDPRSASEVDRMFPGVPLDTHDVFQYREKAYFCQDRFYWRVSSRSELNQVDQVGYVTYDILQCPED

Human recombinant MMP14 = Human recombinant MMP14 (Homo sapiens, UniProt P50281); experiment: MMP14 (MTI-MMP) inhibition, 14C collagen release; type: biochemical; conditions: 35° C., 15 hours; read-out: MMP-14 inhibitory activity, IC50
[1] = test system: Ark human myeloma cancer cells; experiment: Membrane Invasion Culture System (MICS) chemo-invasion assay; type: cell-based; conditions: 24 hours, + = increased invasiveness
Procedure, shortened: (§1)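 Fifty thousand cells were seeded above a 35 μm laminin/collagen IV/gelatin barrier on a 10 μm-pore filter, with serum-free RPMI plus 50% fibroblast-conditioned medium below as chemoattractant. Compound at 1, 10 or 25 μg/ml, or DMSO vehicle, was present for 24 h. Invaded cells were collected, Wright-stained and counted over 5 fields.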

[2] = test system: C8161 human melanoma cells; experiment: as above; type: cell-based; conditions: 24 hours, + = increased invasiveness
Procedure, shortened: as §1

[3] = test system: MDA-MB-231 human breast cancer cells; experiment: as above; type: cell-based; conditions: 24 hours, + = increased invasiveness
Procedure, shortened: as §1

[4] = test system: PC-3 ML human prostate cancer cells; experiment: as above; type: cell-based; conditions: 24 hours, + = increased invasiveness
Procedure, shortened: as §1

[5] = test system: RPMI-8226 human myeloma cancer cells; experiment: as above; type: cell-based; conditions: 24 hours, + = increased invasiveness
Procedure, shortened: as §1

[6] = test system: Arp-1 human myeloma cancer cells; experiment: as above; type: cell-based; conditions: 24 hours, + = increased invasiveness
Procedure, shortened: as §1

MAT LyLu tumor = experiment: Dunning MAT LyLu tumor model, survival; type: in vivo, Copenhagen rats; conditions: for Surviving Number: 10/group, dosed by gavage
[7] = Dunning MAT LyLu tumor model, weekly body weight; type: in vivo; conditions: compared to the control group

Row | IC50 (Human recombinant MMP1) | IC50 (MMP2 (Gelatinase A)) | IC50 (Human recombinant MMP3) | IC50 (Human recombinant MMP7) | IC50 (Human recombinant MMP9) | IC50 (Human recombinant MMP14) | SMILES | percent inhibition, ARK ([1]; 1 ug/mL) | percent inhibition, ARK ([1]; 10 ug/mL) | percent inhibition, ARK ([1]; 25 ug/mL) | percent inhibition, C8161 (Melanoma) ([2]; 1 ug/mL) | percent inhibition, C8161 (Melanoma) ([2]; 10 ug/mL) | percent inhibition, C8161 (Melanoma) ([2]; 25 ug/mL) | percent inhibition, MDA-MB-231 (Breast) ([3]; 1 ug/mL) | percent inhibition, MDA-MB-231 (Breast) ([3]; 10 ug/mL) | percent inhibition, MDA-MB-231 (Breast) ([3]; 25 ug/mL) | percent inhibition, PC-3 ML (Prostrate) ([4]; 1 ug/mL) | percent inhibition, PC-3 ML (Prostrate) ([4]; 10 ug/mL) | percent inhibition, PC-3 ML (Prostrate) ([4]; 25 ug/mL) | percent inhibition, RPMI-8226 (Multiple Myeloma) ([5]; 1 ug/mL) | percent inhibition, RPMI-8226 (Multiple Myeloma) ([5]; 10 ug/mL) | also measured
1 | 126 µM | 48 µM | 206 µM | > 1000 µM | 64 µM | 14 µM | CN(C)C1C(O)=C(C(N)=O)C(=O)C2(O)C(O)=C3C(=O)c4c(O)c(Br)cc(Br)c4CC3CC12 (stereo not shown) [Compound 13, 7,9-Dibromo-6-demethyl-6-deoxytetracycline H2SO4] | 2% | +7% | 1% | 6% | 12% | 14% | 4% | 0% | +9% | 8% | 23^B percent | 13% | +11% | +13% | percent inhibition, RPMI-8226 (Multiple Myeloma) ([5]; 25 ug/mL): +12%
2 | 372 µM | 337 µM | 154 µM | 507 µM | 28 µM | 29 µM | CN(C)c1cc([N+]#N)c(O)c2c1CC1CC3C(N(C)C)C(O)=C(C(N)=O)C(=O)C3(O)C(O)=C1C2=O (stereo not shown) [Compound 9, 7-dimethylamino-6-demethyl-6-deoxytetracycline-9-diazonium H2SO4 HCL] | 17^B percent | 24^B percent | 20^B percent |  |  |  |  |  |  |  |  |  | 21^B percent | 24^B percent | percent inhibition, ARP-1 ([6]; 1 ug/mL): +14%; percent inhibition, ARP-1 ([6]; 10 ug/mL): +21^B percent; percent inhibition, ARP-1 ([6]; 25 ug/mL): 7%; percent inhibition, RPMI-8226 (Multiple Myeloma) ([5]; 25 ug/mL): 28^B percent
3 | > 1000 µM | > 1000 µM | 304 µM | > 1000 µM | 136 µM | 216 µM | CC(C)Nc1ccc2c(c1O)C(=O)C1=C(O)C3(O)C(=O)C(C(N)=O)=C(O)C(N(C)C)C3C(O)C1C2C (stereo not shown) [Compound 3, 9-Isopropylamino-6-deoxy-5-hydroxytetracycline H2SO4] | +11% | +6% | +15% | 30^B percent | 22^B percent | 15^B percent | +8% | +2% | 12% | 3% | +1% | 25^B percent |  |  | percent inhibition, ARP-1 ([6]; 1 ug/mL): +13%; percent inhibition, ARP-1 ([6]; 10 ug/mL): +1%; percent inhibition, ARP-1 ([6]; 25 ug/mL): +16%
4 |  |  |  |  |  |  | CC1c2ccc(N)c(O)c2C(=O)C2=C(O)C3(O)C(=O)C(C(N)=O)=C(O)C(N(C)C)C3C(O)C21 (stereo not shown) [Compound 2, 9-amino-6-deoxy-5-hydroxytetracycline H2SO4] | 20^B percent | 9^B percent | 10% | 20^B percent | 25^B percent | 27^B percent | 20% | 15% | 30^B percent | 20% | 8% | 15% |  |  | Surviving Number (MAT LyLu tumor; 14 days post tumor implantation): 10; Surviving Number (MAT LyLu tumor; 17 days post tumor implantation): 10; Surviving Number (MAT LyLu tumor; 24 days post tumor implantation): 10; Surviving Number (MAT LyLu tumor; 27 days post tumor implantation): 10; Surviving Number (MAT LyLu tumor; 28 days post tumor implantation): 9; Surviving Number (MAT LyLu tumor; 29 days post tumor implantation): 9; Surviving Number (MAT LyLu tumor; 30 days post tumor implantation): 7; Surviving Number (MAT LyLu tumor; 34 days post tumor implantation): 7; Surviving Number (MAT LyLu tumor; 42 days post tumor implantation): 7; surviving number after tumor implantation (in words) (MAT LyLu tumor; compared to the control group): marked increase in surviving number; body weight changes [7]: indistinguishable body weight changes; percent inhibition, ARP-1 ([6]; 1 ug/mL): 10%; percent inhibition, ARP-1 ([6]; 10 ug/mL): 7%; percent inhibition, ARP-1 ([6]; 25 ug/mL): 6%; percent inhibition, RPMI-8226 (Multiple Myeloma) ([5]; 25 ug/mL, listed as 5): 36% and 42^B percent
5 | 499 µM | 484 µM | 96 µM | > 1000 µM | 41 µM | 53 µM | CN(C)c1cc(N=[N+]=[N-])c(O)c2c1CC1CC3C(N(C)C)C(O)=C(C(N)=O)C(=O)C3(O)C(O)=C1C2=O (stereo not shown) [Compound 10, 9-Azido-7-demethylamino-6-demethyl-6-deoxytetracycline H2SO4] | 6% | +7% | 1% |  | 22% and 28^B percent |  |  |  |  |  |  |  | 3% | 5% | percent inhibition, RPMI-8226 (Multiple Myeloma) ([5]; 25 ug/mL): 29^B percent
6 | 394 µM | 135 µM | 241 µM | > 1000 µM and < 1000 µM | 83 µM | 56 µM | CC1c2ccc(N=[N+]=[N-])c(O)c2C(=O)C2=C(O)C3(O)C(=O)C(C(N)=O)=C(O)C(N(C)C)C3C(O)C21 (stereo not shown) [Compound 6, 9-Azido-6-deoxy-5-hydroxytetracycline H2SO4] | 12% | 0% | 8% |  | 33^B percent and 21^B percent | 32^B percent and 33^B percent |  |  | 27^B percent and 42^B percent | 21% and 13% | 26% and 32^B percent | 41^B percent and 30^B percent |  |  | 
